Test results as given in US4698352A, “4-oxo-1,4-dihydronicotinic acid derivatives, salts thereof, and antibacterial agents containing the same” (Toyama Chemical Co., Ltd., priority 1982, dated 1987).
≈ marks a conversion by molar mass, not a printed value. Read-outs that look alike come from different tables or passages of the source.

Tests used:
Assay in all cases: Antibacterial activity (MIC), agar dilution
Format in all cases: cell-based
[1] = tested on: E. coli TK-3*; settings: Escherichia coli, 20 h, E. coli TK-3, penicillinase-producing; 10^6 cells per ml; read-out: MIC
Source text: (§1) The amount of bacteria inoculated was 10^4 cells per plate (10^6 cells per ml).
(§2) * Penicillinase-producing bacteria

[2] = tested on: St. aureus F-137*; settings: Staphylococcus aureus, 20 h
Source text: as §1, §2

[3] = tested on: Kl. pneumoniae Y-4*; settings: Klebsiella pneumoniae, 20 h, Kl. pneumoniae Y-4, penicillinase-producing; 10^6 cells per ml; read-out: MIC
Source text: as §1, §2

[4] = tested on: Ps. aeruginosa GN3379*; settings: Pseudomonas aeruginosa, Ps. aeruginosa GN3379, penicillinase-producing, 10^6 cells per ml
Source text: as §1, §2

[5] = tested on: Pro. mirabilis T-111; settings: Proteus mirabilis, 37° C.
Source text: as §1

[6] = tested on: E. coli TK-111; settings: Escherichia coli, TK111, 20 h
Source text: as §1

[7] = tested on: St. aureus FDA209P; settings: Staphylococcus aureus, FDA209P, 20 h
Source text: as §1

[8] = tested on: E. coli NIHJ JC-2; settings: Escherichia coli, NIHJJC2, 20 h, E. coli NIHJ JC-2; 10^6 cells per ml; 37° C., 20 hours; read-out: MIC
Source text: as §1

[9] = tested on: Kl. pneumoniae Y-50; settings: Klebsiella pneumoniae, Y50, 20 h, 10^6 cells per ml, 37° C., read-out: MIC
Source text: as §1

[10] = tested on: Pro. vulgaris GN3027; settings: Proteus vulgaris, GN3027, 20 h, Pro. vulgaris GN3027; 10^6 cells per ml; 37° C., 20 hours; read-out: MIC
Source text: as §1

[11] = tested on: Aci. antitratus A-6; settings: 20 h, Aci. antitratus A-6; 10^6 cells per ml; 37° C., 20 hours; read-out: MIC
Source text: as §1

[12] = tested on: Ent. cloacae IID977; settings: Enterobacter cloacae, IID977, 20 h, Ent. cloacae IID977; 10^6 cells per ml; 37° C., 20 hours; read-out: MIC
Source text: as §1

[13] = tested on: Pro. morganii T-216; settings: Morganella morganii, 37° C.
Source text: as §1

[14] = tested on: Ps. aeruginosa IFO3445; settings: Pseudomonas aeruginosa; Ps. aeruginosa IFO3445; 10^6 cells per ml; 37° C., 20 hours; read-out: MIC
Source text: as §1

[15] = tested on: Ps. aeruginosa S-68; settings: Pseudomonas aeruginosa
Source text: as §1

[16] = tested on: Kl. pneumoniae Y-41; settings: Klebsiella pneumoniae, Y41, 10^6 cells per ml, 37° C., 20 hours, read-out: MIC
Source text: as §1

[17] = tested on: E. coli GN5482**; settings: Escherichia coli, 20 h; E. coli GN5482, cephalospolinase-producing; 10^6 cells per ml; read-out: MIC
Source text: as §1
(§3) ** Cephalospolinase-producing bacteria

[18] = tested on: Pro. vulgaris GN76**; settings: Proteus vulgaris
Source text: as §1, §3

[19] = tested on: Ps. aeruginosa GN918**; settings: Pseudomonas aeruginosa, Ps. aeruginosa GN918, cephalospolinase-producing, 10^6 cells per ml
Source text: as §1, §3

[20] = St. aureus F-137, penicillinase-producing, 10^6 cells per ml, read-out: MIC
[21] = T111, 10^6 cells per ml, 20 hours, read-out: MIC
[22] = E. coli TK-111, 10^6 cells per ml, 37° C., 20 hours, read-out: MIC
[23] = St. aureus FDA209P, 10^6 cells per ml, 37° C., 20 hours, read-out: MIC
[24] = T216, 10^6 cells per ml, 20 hours, read-out: MIC
[25] = S68, Ps. aeruginosa S-68, 10^6 cells per ml, 37° C., 20 hours, read-out: MIC
[26] = 20 h, Pro. vulgaris GN76, cephalospolinase-producing, 10^6 cells per ml, read-out: MIC

Structure (SMILES)	MIC [1]	MIC [2, 20]	MIC [3]	MIC ([4]; 20 h, read-out: MIC)	MIC [5, 21]	MIC [6, 22]	MIC [7, 23]	MIC [8]	MIC [9]	MIC [10]	MIC [11]	MIC [12]	MIC [13, 24]	MIC [14]	MIC [15, 25]	MIC [16]	MIC [17]	MIC [18, 26]	MIC ([19]; 20 h, read-out: MIC)	MIC ([13]; T216, 20 h, 10^6 cells per ml)	further results
Cc1cc(O)ccc1-n1cc(C(=O)O)c(=O)cc1-c1ccc2c(ccn2C)c1	0.2 µg/mL (≈ 0.534 µM)	≤ 0.05 µg/mL	0.78 µg/mL (≈ 2.08 µM)	6.25 µg/mL (≈ 16.7 µM)	0.78 µg/mL (≈ 2.08 µM)	0.05 µg/mL (≈ 0.134 µM)	≤ 0.05 µg/mL	≤ 0.05 µg/mL	0.2 µg/mL (≈ 0.534 µM)	0.1 µg/mL (≈ 0.267 µM)	≤ 0.05 µg/mL	0.39 µg/mL (≈ 1.04 µM)	0.78 µg/mL (≈ 2.08 µM)	3.13 µg/mL (≈ 8.36 µM)	3.13 µg/mL (≈ 8.36 µM)	0.78 µg/mL (≈ 2.08 µM)	≤ 0.05 µg/mL	0.39 µg/mL (≈ 1.04 µM)	0.39 µg/mL (≈ 1.04 µM)	–	–
O=C(O)c1cn(-c2ccc(O)cc2)c(-c2ccc(-n3cccc3)cc2)cc1=O	0.39 µg/mL (≈ 1.05 µM)	0.1 µg/mL (≈ 0.269 µM)	1.56 µg/mL (≈ 4.19 µM)	3.13 µg/mL (≈ 8.41 µM)	–	≤ 0.05 µg/mL	0.1 µg/mL (≈ 0.269 µM)	0.1 µg/mL (≈ 0.269 µM)	0.39 µg/mL (≈ 1.05 µM)	0.2 µg/mL (≈ 0.537 µM)	0.1 µg/mL (≈ 0.269 µM)	0.78 µg/mL (≈ 2.09 µM)	–	3.13 µg/mL (≈ 8.41 µM)	3.13 µg/mL (≈ 8.41 µM)	1.56 µg/mL (≈ 4.19 µM)	≤ 0.05 µg/mL	0.78 µg/mL (≈ 2.09 µM)	–	1.56 µg/mL (≈ 4.19 µM)	MIC ([5]; T111, 20 h, 10^6 cells per ml): 1.56 µg/mL (≈ 4.19 µM); MIC ([19]; GN918, 20 h): 1.56 µg/mL (≈ 4.19 µM)
CN(C)c1ccc(-c2cc(=O)c(C(=O)O)cn2-c2ccc(F)cc2F)cc1	3.13 µg/mL (≈ 8.45 µM)	0.1 µg/mL (≈ 0.27 µM)	6.25 µg/mL (≈ 16.9 µM)	25 µg/mL (≈ 67.5 µM)	3.13 µg/mL (≈ 8.45 µM)	0.2 µg/mL (≈ 0.54 µM)	0.2 µg/mL (≈ 0.54 µM)	0.78 µg/mL (≈ 2.11 µM)	0.78 µg/mL (≈ 2.11 µM)	0.2 µg/mL (≈ 0.54 µM)	0.39 µg/mL (≈ 1.05 µM)	3.13 µg/mL (≈ 8.45 µM)	3.13 µg/mL (≈ 8.45 µM)	12.5 µg/mL (≈ 33.8 µM)	12.5 µg/mL (≈ 33.8 µM)	6.25 µg/mL (≈ 16.9 µM)	0.1 µg/mL (≈ 0.27 µM)	0.78 µg/mL (≈ 2.11 µM)	12.5 µg/mL (≈ 33.8 µM)	–	–
CC(=O)Oc1ccc(-n2cc(C(=O)O)c(=O)cc2-c2ccc(N(C)C)cc2)c(C)c1	0.39 µg/mL (≈ 0.96 µM)	≤ 0.05 µg/mL	1.56 µg/mL (≈ 3.84 µM)	6.25 µg/mL (≈ 15.4 µM)	0.78 µg/mL (≈ 1.92 µM)	≤ 0.05 µg/mL	≤ 0.05 µg/mL	0.2 µg/mL (≈ 0.492 µM)	0.39 µg/mL (≈ 0.96 µM)	0.39 µg/mL (≈ 0.96 µM)	≤ 0.05 µg/mL	0.78 µg/mL (≈ 1.92 µM)	–	6.25 µg/mL (≈ 15.4 µM)	3.13 µg/mL (≈ 7.7 µM)	1.56 µg/mL (≈ 3.84 µM)	≤ 0.05 µg/mL	0.39 µg/mL (≈ 0.96 µM)	–	1.56 µg/mL (≈ 3.84 µM)	MIC ([19]; GN918, 20 h): 1.56 µg/mL (≈ 3.84 µM)
O=C(O)c1cn(-c2ccc(O)cc2)c(-c2ccc3cccnc3c2)cc1=O	0.39 µg/mL (≈ 1.09 µM)	–	12.5 µg/mL (≈ 34.9 µM)	–	25 µg/mL (≈ 69.8 µM)	0.39 µg/mL (≈ 1.09 µM)	–	0.78 µg/mL (≈ 2.18 µM)	1.56 µg/mL (≈ 4.35 µM)	0.39 µg/mL (≈ 1.09 µM)	25 µg/mL (≈ 69.8 µM)	3.13 µg/mL (≈ 8.73 µM)	–	25 µg/mL (≈ 69.8 µM)	–	6.25 µg/mL (≈ 17.4 µM)	≤ 0.05 µg/mL	3.13 µg/mL (≈ 8.73 µM)	3.13 µg/mL (≈ 8.73 µM)	6.25 µg/mL (≈ 17.4 µM)	MIC [2]: 1.56 µg/mL (≈ 4.35 µM); MIC ([4]; GN3379, 20 h): 12.5 µg/mL (≈ 34.9 µM); MIC [7]: 1.56 µg/mL (≈ 4.35 µM); MIC ([15]; S68, 20 h): 12.5 µg/mL (≈ 34.9 µM)
CC=Cc1cc(=O)c(C(=O)O)cn1-c1ccc(O)cc1C	3.13 µg/mL (≈ 11 µM)	–	25 µg/mL (≈ 87.6 µM)	25 µg/mL (≈ 87.6 µM)	25 µg/mL (≈ 87.6 µM)	–	6.25 µg/mL (≈ 21.9 µM)	3.13 µg/mL (≈ 11 µM)	1.56 µg/mL (≈ 5.47 µM)	0.39 µg/mL (≈ 1.37 µM)	6.25 µg/mL (≈ 21.9 µM)	6.25 µg/mL (≈ 21.9 µM)	3.13 µg/mL (≈ 11 µM)	25 µg/mL (≈ 87.6 µM)	–	12.5 µg/mL (≈ 43.8 µM)	0.39 µg/mL (≈ 1.37 µM)	–	6.25 µg/mL (≈ 21.9 µM)	–	MIC [2]: 12.5 µg/mL (≈ 43.8 µM); MIC [6]: 1.56 µg/mL (≈ 5.47 µM); MIC ([15]; S68, 20 h): 12.5 µg/mL (≈ 43.8 µM); MIC ([18]; GN76, 20 h): 1.56 µg/mL (≈ 5.47 µM)
